In the NIST ThermoML archive (doi:10.1016/j.fluid.2016.05.030):

Experiments:
[1] = molar heat capacity at constant pressure; conditions: 298.15 K; 101.33 kPa; Liquid; Drop calorimetry
[2] = 101.33 kPa, Liquid; for viscosity: Concentric cylinders viscometry; for mass density: Vibrating tube method

CCCCc1cccc[n+]1CC.O=S(=O)([N-]S(=O)(=O)C(F)(F)F)C(F)(F)F
Conditions | molar heat capacity at constant pressure [J/K/mol]
[1] | 623.6

[2]
Conditions | mass density [kg/m3] | viscosity [mPa·s]
293.15 K | 1413.7 | 146.84
298.15 K | 1409.1 | 109.82
303.15 K | 1404.5 | 84.49
308.15 K | 1400 | 66.34
313.15 K | 1395.4 | 53.17
318.15 K | 1390.9 | 43.11
323.15 K | 1386.4 | 35.55
328.15 K | 1381.9 | 29.7
333.15 K | 1377.4 | 25.14
338.15 K | 1373 | 21.42
343.15 K | 1368.5 | 18.45
348.15 K | 1364.1 | 16.04
353.15 K | 1359.7 | 14.09
358.15 K | 1355.4 | 12.39
363.15 K | 1351 | 11

CCCCCCCCc1cccc[n+]1CC.O=S(=O)([N-]S(=O)(=O)C(F)(F)F)C(F)(F)F
Conditions | molar heat capacity at constant pressure [J/K/mol]
[1] | 749.4

[2]
Conditions | mass density [kg/m3] | viscosity [mPa·s]
293.15 K | 1301.7 | 216.19
298.15 K | 1297.4 | 159.29
303.15 K | 1293.2 | 120.76
308.15 K | 1289 | 93.45
313.15 K | 1284.8 | 73.88
318.15 K | 1280.6 | 59
323.15 K | 1276.4 | 47.97
328.15 K | 1272.3 | 39.54
333.15 K | 1268.1 | 33.06
338.15 K | 1264 | 27.82
343.15 K | 1259.9 | 23.71
348.15 K | 1255.8 | 20.39
353.15 K | 1251.7 | 17.72
358.15 K | 1247.6 | 15.44
363.15 K | 1243.6 | 13.58

CCCCCCc1cccc[n+]1CC.O=S(=O)([N-]S(=O)(=O)C(F)(F)F)C(F)(F)F
Conditions | molar heat capacity at constant pressure [J/K/mol]
[1] | 685.5

[2]
Conditions | mass density [kg/m3] | viscosity [mPa·s]
293.15 K | 1348.7 | 159.82
298.15 K | 1344.3 | 119.41
303.15 K | 1339.9 | 91.77
308.15 K | 1335.5 | 71.93
313.15 K | 1331.2 | 57.52
318.15 K | 1326.8 | 46.51
323.15 K | 1322.5 | 38.22
328.15 K | 1318.2 | 31.83
333.15 K | 1313.9 | 26.87
338.15 K | 1309.7 | 22.8
343.15 K | 1305.6 | 19.59
348.15 K | 1301.4 | 16.98
353.15 K | 1297.1 | 14.86
358.15 K | 1292.9 | 13.04
363.15 K | 1288.8 | 11.54

CCCCCCCc1cccc[n+]1CC.O=S(=O)([N-]S(=O)(=O)C(F)(F)F)C(F)(F)F
Conditions | molar heat capacity at constant pressure [J/K/mol]
[1] | 717.5

[2]
Conditions | mass density [kg/m3] | viscosity [mPa·s]
293.15 K | 1325.1 | 180.53
298.15 K | 1320.8 | 134.1
303.15 K | 1316.5 | 102.47
308.15 K | 1312.2 | 79.9
313.15 K | 1307.9 | 63.6
318.15 K | 1303.6 | 51.17
323.15 K | 1299.4 | 41.88
328.15 K | 1295.2 | 34.73
333.15 K | 1290.9 | 29.21
338.15 K | 1286.7 | 24.71
343.15 K | 1282.5 | 21.16
348.15 K | 1278.3 | 18.28
353.15 K | 1274.2 | 15.97
358.15 K | 1270.1 | 13.97
363.15 K | 1266 | 12.34

CCCCCCCCCc1cccc[n+]1CC.O=S(=O)([N-]S(=O)(=O)C(F)(F)F)C(F)(F)F
Conditions | molar heat capacity at constant pressure [J/K/mol]
[1] | 778.5

CCCc1cccc[n+]1CC.O=S(=O)([N-]S(=O)(=O)C(F)(F)F)C(F)(F)F
Conditions | molar heat capacity at constant pressure [J/K/mol]
[1] | 593.9

[2]
Conditions | mass density [kg/m3] | viscosity [mPa·s]
293.15 K | 1452 | 139.89
298.15 K | 1447.2 | 105.02
303.15 K | 1442.5 | 81.09
308.15 K | 1437.8 | 63.9
313.15 K | 1433.1 | 51.37
318.15 K | 1428.4 | 41.8
323.15 K | 1423.8 | 34.57
328.15 K | 1419.2 | 28.96
333.15 K | 1414.6 | 24.59
338.15 K | 1410 | 21
343.15 K | 1405.4 | 18.15
348.15 K | 1400.9 | 15.82
353.15 K | 1396.4 | 13.94
358.15 K | 1391.9 | 12.3
363.15 K | 1387.5 | 10.95

CCCCCc1cccc[n+]1CC.O=S(=O)([N-]S(=O)(=O)C(F)(F)F)C(F)(F)F
Conditions | molar heat capacity at constant pressure [J/K/mol]
[1] | 652.7

[2]
Conditions | mass density [kg/m3] | viscosity [mPa·s]
293.15 K | 1375.6 | 144.37
298.15 K | 1371.1 | 108.78
303.15 K | 1366.6 | 83.99
308.15 K | 1362.2 | 66.14
313.15 K | 1357.8 | 53
318.15 K | 1353.4 | 43.06
323.15 K | 1349 | 35.52
328.15 K | 1344.6 | 29.65
333.15 K | 1340.2 | 25.11
338.15 K | 1335.8 | 21.4
343.15 K | 1331.5 | 18.44
348.15 K | 1327.1 | 16.02
353.15 K | 1322.8 | 14.06
358.15 K | 1318.6 | 12.36
363.15 K | 1314.3 | 10.97

CCCCCCCCCCc1cccc[n+]1CC.O=S(=O)([N-]S(=O)(=O)C(F)(F)F)C(F)(F)F
Conditions | molar heat capacity at constant pressure [J/K/mol]
[1] | 811.2

CCc1cccc[n+]1CC.O=S(=O)([N-]S(=O)(=O)C(F)(F)F)C(F)(F)F [1,2-diethylpyridin-1-ium bis((trifluoromethyl)sulfonyl)imide]
Conditions | molar heat capacity at constant pressure [J/K/mol]
[1] | 566.1

[2]
Conditions | mass density [kg/m3] | viscosity [mPa·s]
293.15 K | 1475.5 | 87.87
298.15 K | 1470.6 | 68.77
303.15 K | 1465.8 | 54.95
308.15 K | 1461.1 | 44.69
313.15 K | 1456.3 | 36.91
318.15 K | 1451.6 | 30.88
323.15 K | 1446.9 | 26.16
328.15 K | 1442.2 | 22.38
333.15 K | 1437.5 | 19.4
338.15 K | 1432.9 | 16.9
343.15 K | 1428.3 | 14.86
348.15 K | 1423.7 | 13.16
353.15 K | 1419.1 | 11.75
358.15 K | 1414.6 | 10.52
363.15 K | 1410 | 9.483
